The target of the test is T1, human PKR1 receptors (Homo sapiens, UniProt Q8TCW9).
T1 construct: expressed in transfected cells; host or cells: RBL2H3 cells (rat basophilic leukaemia line) expressing human PKR1
T1 sequence (Q8TCW9 whole entry): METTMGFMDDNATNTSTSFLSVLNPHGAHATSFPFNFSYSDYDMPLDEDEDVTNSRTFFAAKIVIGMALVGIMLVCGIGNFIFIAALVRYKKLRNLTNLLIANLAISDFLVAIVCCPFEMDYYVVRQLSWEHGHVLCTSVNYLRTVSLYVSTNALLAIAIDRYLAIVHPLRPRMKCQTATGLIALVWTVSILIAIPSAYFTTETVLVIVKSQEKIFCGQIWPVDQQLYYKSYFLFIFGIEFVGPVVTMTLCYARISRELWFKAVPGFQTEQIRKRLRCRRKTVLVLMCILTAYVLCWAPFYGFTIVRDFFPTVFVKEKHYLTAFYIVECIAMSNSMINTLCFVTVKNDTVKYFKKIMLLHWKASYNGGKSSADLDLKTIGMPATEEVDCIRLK
Description: PKR1 antagonist assay: block of PK1-mediated intracellular calcium release (FLIPR Tetra, Calcium 5 dye). The test is classed as cell-based. The settings on record: RBL2H3 cells expressing human PKR1; 10 min pre-incubation, stimulation with PK1 at EC80; calcium fluorescence. The essentials:
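RBL2H3 cells expressing human PKR1, loaded 1 h at 37 °C with Calcium 5 dye plus 1 mM probenecid in HBSS/25 mM HEPES/0.1% BSA, pH 7.4. Compounds (0.32 nM–10 µM final) preincubated 10 min, then PK1 added at EC80; fluorescence read at 525 nm (excitation 485 nm).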
With `COc1cc(Cl)ccc1CC1(OC)CCN(S(=O)(=O)c2c(C)n[nH]c2C)CC1` [Example 86, 4-(4-Chloro-2-methoxybenzyl)-1-((3,5-dimethyl-1H-pyrazol-4-yl)sulfonyl)-4-methoxypiperidine], the IC50 was found to be 4600 nM.

Regarding `COc1cc(Cl)ccc1CC1(OC)CCN(S(=O)(=O)c2c(C)nn(C)c2C)CC1` [Example 87, 4-(4-Chloro-2-methoxybenzyl)-4-methoxy-1-((1,3,5-trimethyl-1H-pyrazol-4-yl)sulfonyl)piperidine], the IC50 was determined as 5880 nM.

`COc1cc(Cl)ccc1CC1(O)CCN(S(=O)(=O)c2c(C)nn(C)c2C)CC1` [Example 88, 4-(4-Chloro-2-methoxybenzyl)-1-((1,3,5-trimethyl-1H-pyrazol-4-yl)sulfonyl)piperidin-4-ol]: the IC50 was determined as 200 nM.

Take `COc1cc(Cl)ccc1CC1(O)CCN(S(=O)(=O)c2c(C)n[nH]c2C)CC1` [Example 89, 4-(4-Chloro-2-methoxybenzyl)-1-((3,5-dimethyl-1H-pyrazol-4-yl)sulfonyl)piperidin-4-ol]: the concentration for half-maximal inhibition (IC50) turned out to be 410 nM.

With `COc1cc(Cl)ccc1CC1(F)CCN(S(=O)(=O)c2c(C)n[nH]c2C)CC1` [Example 90, 4-(4-Chloro-2-methoxybenzyl)-1-((3,5-dimethyl-1H-pyrazol-4-yl)sulfonyl)-4-fluoropiperidine], the concentration for half-maximal inhibition (IC50) amounted to 170 nM.

As for `COc1cc(Cl)ccc1CC1(F)CCN(S(=O)(=O)c2c(C)nn(C)c2C)CC1` [Example 91, 4-(4-Chloro-2-methoxybenzyl)-4-fluoro-1-((1,3,5-trimethyl-1H-pyrazol-4-yl)sulfonyl)piperidine], the IC50 was determined as 140 nM.

For the molecule `Cc1n[nH]c(C)c1S(=O)(=O)N1CCC(C(C#N)c2ccc(Cl)cc2)CC1` (stereo not drawn) [Example 93, 2-(4-Chlorophenyl)-2-(1-((3,5-dimethyl-1H-pyrazol-4-yl)sulfonyl)piperidin-4-yl)acetonitrile], the IC50 is 610 nM.

With `Cc1n[nH]c(C)c1S(=O)(=O)N1CCC(C(O)c2ccc(Cl)cc2)CC1` (stereo not drawn) [Example 94], the IC50 was found to be 1740 nM.

As for `Cc1nn(C)c(C)c1S(=O)(=O)N1CCC(C(O)c2ccc(Cl)cc2)CC1` (stereo not drawn) [Example 95, (4-Chlorophenyl)(1-((1,3,5-trimethyl-1H-pyrazol-4-yl)sulfonyl)piperidin-4-yl)methanol], the IC50 was 710 nM.

Take `COC(c1ccc(Cl)cc1)C1CCN(S(=O)(=O)c2c(C)n[nH]c2C)CC1` (stereo not drawn) [Example 96, 4-((4-Chlorophenyl)(methoxy)methyl)-1-((3,5-dimethyl-1H-pyrazol-4-yl)sulfonyl)piperidine]: the IC50 worked out at 80 nM.

With `COC(c1ccc(Cl)cc1)C1CCN(S(=O)(=O)c2c(C)nn(C)c2C)CC1` (stereo not drawn) [Example 99, 4-((4-Chlorophenyl)(methoxy)methyl)-1-((1,3,5-trimethyl-1H-pyrazol-4-yl)sulfonyl)piperidine], the IC50 worked out at 60 nM.

As for `Cc1n[nH]c(C)c1S(=O)(=O)N1CCC(C(CO)c2ccc(Cl)cc2)CC1` (stereo not drawn) [Example 100, 2-(4-Chlorophenyl)-2-(1-((3,5-dimethyl-1H-pyrazol-4-yl)sulfonyl)piperidin-4-yl)ethanol], the IC50 turned out to be 9420 nM.

As to `Cc1n[nH]c(C)c1S(=O)(=O)N1CCC(C(C)(O)c2ccc(Cl)cc2)CC1` (stereo not drawn) [Example 101, 1-(4-Chlorophenyl)-1-(1-((3,5-dimethyl-1H-pyrazol-4-yl)sulfonyl)piperidin-4-yl)ethanol], the IC50 was 2380 nM.

As to `Cc1n[nH]c(C)c1S(=O)(=O)N1CCC(C(C)c2ccc(Cl)cc2)CC1` (stereo not drawn) [Example 102, 4-(1-(4-Chlorophenyl)ethyl)-1-((3,5-dimethyl-1H-pyrazol-4-yl)sulfonyl)piperidine], the IC50 amounted to 470 nM.

`Cc1n[nH]c(C)c1S(=O)(=O)N1CCC(Nc2ccc(Cl)cc2)CC1` [Example 103, N-(4-Chlorophenyl)-1-((3,5-dimethyl-1H-pyrazol-4-yl)sulfonyl)piperidin-4-amine]: the IC50 is 1760 nM.

The record behind these values is patent US20130324576A1, “THERAPEUTIC COMPOUNDS” (Takeda Pharmaceutical Company Limited, priority 2012, published 2013).
